Literature values, collected in US20200215024A1, “CANNABINOID FORMULATIONS FOR TREATING ALCOHOL HANGOVER” (Replennabis LLC, priority 2019, published 2020).

Conditions: in vivo

## CCCCCc1cc(O)c2c(c1)OC(C)(C)[C@@H]1CCC(C)=C[C@@H]21 [THC, tetrahydrocannabinol]
  oral bioavailability: less than 8%
